According to publication PMC12472391, “Borylated Five-Membered Ring Iminosugars: Synthesis, Spectroscopic Analysis, and Biological Evaluation for Glycosidase Inhibition and Anticancer Properties for Application in Boron Neutron Capture Therapy (BNCT)—Part 1” (Pharmaceuticals, 2025):

What was measured:
α-D-glucosidase (rice) = α-D-glucosidase (rice) (Oryza sativa subsp. japonica, UniProt Q653V7); test: Glycosidase inhibition, Table 6 (Laboratory 1); type: biochemical
[1] = Appearance: 1 mL of water added to 1 mg of solid, and mixed; type: physicochemical
[2] = test system: A2780 ovarian carcinoma cells; test: Cancer screening, MTT growth inhibition; type: cell-based; settings: Homo sapiens, 72-h exposure; for inhibition at 25 µM: A2780, 25 µM, read-out: A2780 Ovarian Carcinoma, Percentage (%) Cell Growth Inhibition in response to 25 µM of Drug; for GI50: A2780, dose response, read-out: A2780 Ovarian Carcinoma, GI50 = Concentration (µM) that inhibits cell growth by 50%
Method: (§1) Two assays were run: the dose screen to ascertain cell growth inhibition in response to 25 µM of drug (on a blue background) and the dose response (GI50) (on a green background). For a discussion of BNCT as a radiotherapeutic modality, a rationalisation is provided here.
(§2) All test agents were prepared as stock solutions (20 mM) in dimethyl sulfoxide (DMSO) and stored at −20 °C. Cell lines used in the study included HT29, (colorectal carcinoma); U87, SJ-G2, (glioblastoma); MCF-7, (breast carcinoma); A2780 (ovarian carcinoma); H460 (lung carcinoma); A431 (skin carcinoma); Du145 (prostate carcinoma); BE2-C (neuroblastoma) and MiaPaCa-2 (pancreatic carcinoma); together with the one non-tumour derived normal breast cell line (MCF10A). All cell lines were incubated in a humidified atmosphere 5% CO2 at 37 °C. The cancer cell lines were maintained in Dulbecco’s modified Eagle’s medium (DMEM; Sigma, Australia) supplemented with foetal bovine serum (10%), sodium pyruvate (10 mM), penicillin (100 IUmL^−1), streptomycin (100 µg mL^−1), and L-glutamine (2 mM).
(§3) Growth inhibition was determined by plating cells in duplicate in medium (100 µL) at a density of 2500–4000 cells per well in 96-well plates. On day 0 (24 h after plating), when the cells are in logarithmic growth, medium (100 µL) with or without the test agent was added to each well. After a 72-h drug exposure, growth inhibitory effects were evaluated using the MTT (3-(4,5-dimethyltiazol-2-yl)-2,5-diphenyltetrazolium bromide) assay and absorbance read at 540 nm. The percentage growth inhibition was calculated at a fixed concentration of 25 µM, based on the difference between the optical density values on day 0 and those at the end of drug exposure. Each data point is the mean ± the standard error of the mean (SEM) calculated from three replicates, which were performed on separate occasions and separate cell line passages.

[3] = test system: A431 skin carcinoma cells; test: Cancer screening, MTT growth inhibition; type: cell-based; settings: Homo sapiens, 72-h exposure; for inhibition at 25 µM: A-431, 25 µM, read-out: A431 Skin Carcinoma, Percentage (%) Cell Growth Inhibition in response to 25 µM of Drug; for GI50: A-431, dose response, read-out: A431 Skin Carcinoma, GI50 = Concentration (µM) that inhibits cell growth by 50%
Method: as §1, §2, §3

[4] = test system: BE2-C neuroblastoma cells; test: Cancer screening, MTT growth inhibition; type: cell-based; settings: Homo sapiens, BE(2)-C, 72-h exposure, read-out: BE2-C Neuroblastoma, Percentage (%) Cell Growth Inhibition in response to 25 µM of Drug
Method: as §1, §2, §3

[5] = test system: Du145 prostate carcinoma cells; test: Cancer screening, MTT growth inhibition; type: cell-based; settings: Homo sapiens, DU-145, 72-h exposure, read-out: Du145 Prostate Carcinoma, Percentage (%) Cell Growth Inhibition in response to 25 µM of Drug
Method: as §1, §2, §3

[6] = test system: H460 lung carcinoma cells; test: Cancer screening, MTT growth inhibition; type: cell-based; settings: Homo sapiens, 72-h exposure; for inhibition at 25 µM: NCI-H460, 25 µM, read-out: H460 Lung Carcinoma, Percentage (%) Cell Growth Inhibition in response to 25 µM of Drug; for GI50: NCI-H460, dose response, read-out: H460 Lung Carcinoma, GI50 = Concentration (µM) that inhibits cell growth by 50%
Method: as §1, §2, §3

[7] = test system: HT29 colon carcinoma cells; test: Cancer screening, MTT growth inhibition; type: cell-based; settings: Homo sapiens, 72-h exposure; for inhibition at 25 µM: HT-29, 25 µM, read-out: HT29 Colon Carcinoma, Percentage (%) Cell Growth Inhibition in response to 25 µM of Drug; for GI50: HT-29, dose response, read-out: HT29 Colon Carcinoma, GI50 = Concentration (µM) that inhibits cell growth by 50%
Method: as §1, §2, §3

[8] = test system: MCF-7 breast carcinoma cells; test: Cancer screening, MTT growth inhibition; type: cell-based; settings: Homo sapiens, MCF7, 72-h exposure, read-out: MCF-7 Breast Carcinoma, Percentage (%) Cell Growth Inhibition in response to 25 µM of Drug
Method: as §1, §2, §3

[9] = test system: MIA-Pa-Ca2 pancreatic carcinoma cells; test: Cancer screening, MTT growth inhibition; type: cell-based; settings: Homo sapiens, 72-h exposure; for inhibition at 25 µM: MIA PaCa-2, 25 µM, read-out: MIA-Pa-Ca2 Pancreatic Carcinoma, Percentage (%) Cell Growth Inhibition in response to 25 µM of Drug; for GI50: MIA PaCa-2, dose response, read-out: MIA-Pa-Ca2 Pancreatic Carcinoma, GI50 = Concentration (µM) that inhibits cell growth by 50%
Method: as §1, §2, §3

SJ-G2 glioblastoma cells = test: Cancer screening, MTT growth inhibition; type: cell-based; settings: SJ-G2, 72-h exposure, read-out: SJ-G2 Glioblastoma, Percentage (%) Cell Growth Inhibition in response to 25 µM of Drug
Method: as §1, §2, §3

U87 glioblastoma cells = test: Cancer screening, MTT growth inhibition; type: cell-based; settings: 72-h exposure, read-out: U87 Glioblastoma, Percentage (%) Cell Growth Inhibition in response to 25 µM of Drug
Method: as §1, §2, §3

[10] = test system: MCF10A normal breast cells; test: Cancer screening, MTT growth inhibition; type: cell-based; settings: Homo sapiens, MCF-10A, 72-h exposure; for inhibition at 25 µM: read-out: MCF10A Breast (Normal), Percentage (%) Cell Growth Inhibition in response to 25 µM of Drug; for GI50: dose response, read-out: MCF10A Breast (Normal), GI50 = Concentration (µM) that inhibits cell growth by 50%
Method: as §1, §2
The non-cancer MCF10A cell line was maintained in DMEM/F12 (1:1) cell culture media, 5% heat inactivated horse serum, supplemented with penicillin (50 IUmL^−1), streptomycin (50 µg mL^−1), HEPES (20 mM), L-glutamine (2 mM), epidermal growth factor (20 ng mL^−1), hydrocortisone (500 ng mL^−1), cholera toxin (100 ng mL^−1), and insulin (10 mg mL^−1).
as §3

α-D-glucosidase (yeast) = target: T1, α-D-glucosidase (yeast) (Saccharomyces cerevisiae, UniProt P53341); test: Glycosidase inhibition, Table 7; type: biochemical; settings: 1 mg/mL aqueous solution added, 27 °C, run in water, read-out: α-D-Glucosidase Yeast, percentage inhibition
T1 construct: purchased Sigma
T1 sequence (P53341 whole entry): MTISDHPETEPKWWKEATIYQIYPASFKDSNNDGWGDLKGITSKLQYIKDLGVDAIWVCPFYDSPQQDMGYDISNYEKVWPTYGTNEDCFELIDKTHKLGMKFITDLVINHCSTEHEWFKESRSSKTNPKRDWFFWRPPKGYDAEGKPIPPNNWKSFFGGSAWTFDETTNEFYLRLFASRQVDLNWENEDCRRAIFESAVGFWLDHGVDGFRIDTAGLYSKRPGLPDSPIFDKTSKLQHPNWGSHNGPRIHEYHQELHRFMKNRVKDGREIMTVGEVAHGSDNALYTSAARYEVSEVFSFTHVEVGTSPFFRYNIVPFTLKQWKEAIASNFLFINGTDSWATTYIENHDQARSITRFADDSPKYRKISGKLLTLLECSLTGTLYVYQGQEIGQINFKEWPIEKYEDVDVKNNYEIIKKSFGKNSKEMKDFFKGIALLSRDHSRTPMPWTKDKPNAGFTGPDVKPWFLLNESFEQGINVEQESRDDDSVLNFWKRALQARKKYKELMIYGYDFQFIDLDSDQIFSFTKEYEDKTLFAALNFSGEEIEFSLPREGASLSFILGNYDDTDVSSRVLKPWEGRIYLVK
Method: (§4) All enzymes and para-nitrophenyl substrates were purchased from Sigma. Enzymes were assayed at 27 °C in citric acid (0.1M)/disodium hydrogen phosphate (0.2 M) buffers at the optimum pH for the enzyme. The incubation mixture consisted of […] enzyme solution, […] of 1 mg/mL aqueous solution of extract, and […] of the appropriate 5 mM para-nitrophenyl substrate made up in buffer at the optimum pH for the enzyme. The reactions were stopped by the addition of […] 0.4 M glycine (pH 10.4) during the exponential phase of the reaction, which had been determined at the beginning using uninhibited assays in which water replaced the inhibitor. Final absorbances were read at 405 nm using a Versamax microplate reader (Molecular Devices). Assays were carried out in triplicate, and the values given are the means of the three replicates per assay. All reactions run in water.

β-D-glucosidase (almond) = test: Glycosidase inhibition, Table 7; type: biochemical; settings: 1 mg/mL aqueous solution added, 27 °C, run in water
Method: as §4

[11] = test system: β-D-glucuronidase (bovine liver); test: Glycosidase inhibition, Table 7; type: biochemical; settings: 1 mg/mL aqueous solution added, 27 °C, run in water
Method: as §4

Chain of α-D-glucosidase (rice) (Q653V7 34-885): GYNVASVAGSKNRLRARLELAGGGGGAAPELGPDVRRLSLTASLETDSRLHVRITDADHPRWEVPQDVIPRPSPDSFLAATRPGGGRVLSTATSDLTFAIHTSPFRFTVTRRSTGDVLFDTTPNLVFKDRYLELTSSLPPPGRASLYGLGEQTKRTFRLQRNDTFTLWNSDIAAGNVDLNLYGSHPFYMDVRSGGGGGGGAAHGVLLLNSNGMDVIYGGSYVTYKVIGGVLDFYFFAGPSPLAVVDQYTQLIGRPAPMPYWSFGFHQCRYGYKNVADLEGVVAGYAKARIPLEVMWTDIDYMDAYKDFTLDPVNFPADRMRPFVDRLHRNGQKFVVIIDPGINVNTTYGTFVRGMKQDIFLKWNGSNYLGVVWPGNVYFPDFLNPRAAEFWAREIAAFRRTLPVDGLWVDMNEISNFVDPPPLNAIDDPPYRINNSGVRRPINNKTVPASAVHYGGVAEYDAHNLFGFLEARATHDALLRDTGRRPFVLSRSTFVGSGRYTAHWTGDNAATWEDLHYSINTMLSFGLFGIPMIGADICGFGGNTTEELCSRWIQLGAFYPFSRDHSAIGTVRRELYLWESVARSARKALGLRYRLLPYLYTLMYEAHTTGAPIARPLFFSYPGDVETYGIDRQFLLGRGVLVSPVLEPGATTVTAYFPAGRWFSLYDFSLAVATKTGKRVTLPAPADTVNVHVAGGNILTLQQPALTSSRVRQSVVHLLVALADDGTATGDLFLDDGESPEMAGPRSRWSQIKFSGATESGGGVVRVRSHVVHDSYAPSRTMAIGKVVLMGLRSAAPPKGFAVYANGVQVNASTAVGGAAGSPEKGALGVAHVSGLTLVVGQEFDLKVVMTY

SMILES	inhibition at 100 µM (α-D-glucosidase (rice))	Appearance [1]	inhibition at 25 µM [2]	inhibition at 25 µM [3]	inhibition at 25 µM [4]	inhibition at 25 µM [5]	inhibition at 25 µM [6]	inhibition at 25 µM [7]	inhibition at 25 µM [8]	inhibition at 25 µM [9]	inhibition at 25 µM (SJ-G2 glioblastoma cells)	inhibition at 25 µM (U87 glioblastoma cells)	inhibition at 25 µM [10]	inhibition at 1000 µg/mL (stock) (α-D-glucosidase (yeast))	β-D-Glucosidase Almond, percentage inhibition (β-D-glucosidase (almond))	β-D-Glucuronidase Bovine Liver, percentage inhibition [11]	GI50 [2]	GI50 [3]	GI50 [6]	GI50 [7]	other results
CC1(C)O[C@H]2O[C@H]3[C@@H]([C@H]2O1)N(Cc1ccc(B2OC(C)(C)C(C)(C)O2)cc1)C[C@H]3O [para 6, N-(4-Methylphenylboronic acid pinacol ester)-3,6-dideoxy-3,6-imino-1,2-O-isopropylidene-α-D-gulofuranose]	0%	Completely insoluble	14%	6%	5%	< 0%	10%	8%	3%	9%	9%	7%	14%	–	–	–	–	–	–	–	–
CC1(C)O[C@H]2O[C@H]3[C@@H]([C@H]2O1)N(Cc1ccccc1)C[C@H]3O [Compound 3, N-Benzyl-3,6-dideoxy-3,6-imino-1,2-O-isopropylidene-α-D-gulofuranose]	0%	In solution	11%	7%	10%	< 0%	9%	10%	7%	7%	10%	5%	9%	-89%	−8.3%	−0.2%	–	–	–	–	–
OB(O)c1ccc(CN2CC(O)C3OC(O)C(O)C32)cc1 [para 7, N-(4-Methylphenylboronic acid)-3,6-dideoxy-3,6-imino-D-gulofuranose]	–	In solution	27 ± 2%	9 ± 5%	–	–	9 ± 6%	15 ± 3%	–	14%	–	–	4 ± 2%	4.2%	68.1%	1.1%	> 50 µM	> 50 µM	> 50 µM	> 50 µM	inhibition at 1000 µM (α-D-glucosidase (rice)): 0%; GI50 [9]: > 50 µM; GI50 [10]: > 50 µM
N[C@@H](Cc1ccc(B(O)O)cc1)C(=O)O [BPA, 4-borono-L-phenylalanine, reference compound]	–	Some in solution with undissolved sediment	4%	4%	13%	19%	7%	14%	< 0%	3%	5%	< 0%	4%	2.9%	3.9%	−0.7%	–	–	–	–	–
OC[C@H](O)[C@@H]1[C@H](O)[C@H](O)CN1Cc1ccc(B(O)O)cc1 [para 8, N-(4-Methylphenylboronic acid)-1,4-dideoxy-1,4-imino-L-gulitol]	–	In solution	14 ± 7%	0%	–	–	1 ± 2%	5 ± 2%	–	11 ± 1%	–	–	1%	9.7%	23.9%	2.4%	> 50 µM	> 50 µM	> 50 µM	> 50 µM	inhibition at 1000 µM (α-D-glucosidase (rice)): 8.2%; GI50 [9]: > 50 µM; GI50 [10]: > 50 µM
OC[C@H](O)[C@@H]1[C@H](O)[C@H](O)CN1Cc1ccccc1 [Compound 5, N-Benzyl-1,4-dideoxy-1,4-imino-L-gulitol]	0%	In solution	13 ± 6%	2%	–	–	0%	2 ± 3%	–	6 ± 1%	–	–	3%	5.5%	17.1%	−2.2%	> 50 µM	> 50 µM	> 50 µM	> 50 µM	GI50 [9]: > 50 µM; GI50 [10]: > 50 µM
